Experimental data as given in BindingDB's records for doi:10.1016/s0968-0896(99)00101-7 (Otsuka Pharmaceutical Co., Ltd, 1999).

How the values were obtained:
Vasopressin V1a receptor = Vasopressin V1a receptor (Homo sapiens, UniProt P37288); assay: Radioligand Binding Assay to HeLa Cells
Protocol: (§1) After reaching confluence in 12-well or 24-well dishes, the cells were washed twice with ice-cold PBS and incubated for 2 hr with [3H]-AVP at 4 deg C. For the competition experiment, test compounds were dissolved in dimethyl sulfoxide, diluted with DMEM medium and added into the wells at several appropriate concentrations. […] The protein content of the lysed cells was determined by the method of Bradford.

Vasopressin V2 receptor = Vasopressin V2 receptor (Homo sapiens, UniProt P30518); assay: Radioligand Binding Assay to HeLa Cells; settings: pH 7.4; 4 °C
Protocol: as §1

Sequence of Vasopressin V1a receptor (P37288 whole entry): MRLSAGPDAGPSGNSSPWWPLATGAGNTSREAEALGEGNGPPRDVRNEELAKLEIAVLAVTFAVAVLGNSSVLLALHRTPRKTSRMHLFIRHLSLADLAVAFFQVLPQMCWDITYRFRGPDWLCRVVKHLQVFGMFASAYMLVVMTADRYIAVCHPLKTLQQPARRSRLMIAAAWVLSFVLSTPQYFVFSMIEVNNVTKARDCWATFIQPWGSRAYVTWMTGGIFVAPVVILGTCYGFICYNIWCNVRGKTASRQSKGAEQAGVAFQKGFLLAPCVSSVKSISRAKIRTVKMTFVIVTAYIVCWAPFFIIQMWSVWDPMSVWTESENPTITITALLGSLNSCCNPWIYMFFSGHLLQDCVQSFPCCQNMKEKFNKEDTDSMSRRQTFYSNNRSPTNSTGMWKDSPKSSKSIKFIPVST
Sequence of Vasopressin V2 receptor (P30518 whole entry): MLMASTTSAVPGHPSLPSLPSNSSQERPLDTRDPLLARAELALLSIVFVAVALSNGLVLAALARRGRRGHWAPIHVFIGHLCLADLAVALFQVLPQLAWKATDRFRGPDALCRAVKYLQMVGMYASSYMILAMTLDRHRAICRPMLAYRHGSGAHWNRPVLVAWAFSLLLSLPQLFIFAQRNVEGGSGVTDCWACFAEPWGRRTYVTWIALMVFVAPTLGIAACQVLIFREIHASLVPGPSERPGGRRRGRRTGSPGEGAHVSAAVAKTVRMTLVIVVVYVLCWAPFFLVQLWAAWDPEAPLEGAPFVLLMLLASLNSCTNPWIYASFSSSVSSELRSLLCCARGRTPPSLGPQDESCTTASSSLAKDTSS

| SMILES | IC50 (Vasopressin V1a receptor; pH 7.4, 4 °C) [nM] | IC50 (Vasopressin V2 receptor) [nM] | IC50 (Vasopressin V1a receptor) [nM] |
| --- | --- | --- | --- |
| CNC1CCCN(C(=O)c2ccc(NC(=O)c3ccccc3C)cc2)c2ccc(Cl)cc21 (stereo not drawn) [benzazepine derivative, 13a] | 64 | 7 | – |
| Cc1ccccc1C(=O)Nc1ccc(C(=O)N2CCCC(N(C)C)c3ccc(Cl)cc32)cc1 (stereo not drawn) [benzazepine derivative, 15] | 1200 | 63 | – |
| Cc1ccccc1C(=O)Nc1ccc(C(=O)N2CCCC(N(C)C)c3c(Cl)cccc32)cc1 (stereo not drawn) [benzazepine derivative, 17] | 1700 | 190 | – |
| C=CCN(C)C1CCCN(C(=O)c2ccc(NC(=O)c3ccccc3C)cc2)c2ccc(Cl)cc21 (stereo not drawn) [benzazepine derivative, 19] | 350 | 97 | – |
| Cc1ccccc1C(=O)Nc1ccc(C(=O)N2CCCC(O)c3cc(Cl)ccc32)cc1 (stereo not drawn) [benzazepine derivative, 20] | 17 | 3 | – |
| COC1CCCN(C(=O)c2ccc(NC(=O)c3ccccc3C)cc2)c2ccc(Cl)cc21 (stereo not drawn) [benzazepine derivative, 21] | 34 | 5 | – |
| C=CCOC1CCCN(C(=O)c2ccc(NC(=O)c3ccccc3C)cc2)c2ccc(Cl)cc21 (stereo not drawn) [benzazepine derivative, 22] | 53 | 9 | – |
| Cc1ccccc1C(=O)Nc1ccc(C(=O)N2CCCC(O)c3cc(Cl)ccc32)c(Cl)c1 (stereo not drawn) [benzazepine derivative, 30] | 290 | 8 | – |
| Cc1ccccc1C(=O)Nc1ccc(C(=O)N2CCCC(O)c3cc(Cl)ccc32)cc1Cl (stereo not drawn) [benzazepine derivative, 31] | 31 | 28 | – |

Further compounds by falling IC50 (Vasopressin V2 receptor), results first:

| IC50 (Vasopressin V1a receptor; pH 7.4, 4 °C) [nM] | IC50 (Vasopressin V2 receptor) [nM] | IC50 (Vasopressin V1a receptor) [nM] | SMILES |
| --- | --- | --- | --- |
| 540 | 140 | – | Cc1ccccc1C(=O)Nc1ccc(C(=O)N2CCCC(N(C)C)c3cccc(Cl)c32)cc1 (stereo not drawn) [benzazepine derivative, 16] |
| 190 | 25 | – | Cc1ccccc1C(=O)Nc1ccc(C(=O)N2CCCC(N(C)C)c3cc(Cl)ccc32)cc1 (stereo not drawn) [benzazepine derivative, 14] |
| 45 | 18 | – | C=CCNC1CCCN(C(=O)c2ccc(NC(=O)c3ccccc3C)cc2)c2ccc(Cl)cc21 (stereo not drawn) [benzazepine derivative, 18] |
| – | 13 | 39 | COc1cc(NC(=O)c2ccccc2C)ccc1C(=O)N1CCCC(O)c2cc(Cl)ccc21 (stereo not drawn) [benzazepine derivative, 33] |
| – | 5 | 7 | COc1cc(C(=O)N2CCCC(O)c3cc(Cl)ccc32)ccc1NC(=O)c1ccccc1C (stereo not drawn) [benzazepine derivative, 34] |
